Patent US8912120B2, “Herbicidal compositions comprising 4-amino-3-chloro-5-fluoro-6-(4-chloro-2-fluoro-3-methoxyphenyl) pyridine-2-carboxylic acid or a derivative thereof and synthetic auxin herbicides” (Dow AgroSciences, LLC., priority 2012, dated 2014)
Where two headings read alike, the source gives them in different places.

Key:
ECHCG [1] = test: Example I: postemergence foliar-applied herbicidal mixtures, direct seeded rice, ECHCG
POLCO = test: Example IV: postemergence foliar-applied herbicidal mixtures, cereal crops, POLCO; assay type: in vivo, Polygonum convolvulus (wild buckwheat); conditions: 8.75 gai/ha
In short: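 Greenhouse plants were grown 7–36 days in potting mix (pH 6.0–6.8) under ~14 h photoperiod at about 18 °C day/17 °C night. Postemergence foliar sprays (12 mL) contained the second cereal herbicide with experimental compound as two- and three-way mixtures.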

ELEIN = test: Example III: postemergence foliar-applied herbicidal mixtures, weeds common to row crops such as corn and soybeans (greenhouse), ELEIN; assay type: in vivo, Eleusine indica (goosegrass)
Protocol: The plants were grown for 7-31 days (d) in a greenhouse with an approximate 15 hour (h) photoperiod which was maintained at about 23-29° C. during the day and 22-28° C. during the night.

IPOHE = test: Example I: postemergence foliar-applied herbicidal mixtures, direct seeded rice, IPOHE; assay type: in vivo, Ipomoea hederacea (ivyleaf morningglory)
Protocol: (§2) The soil matrix was contained in plastic pots with a volume of 1 quart and a surface area of 83.6 square centimeters (cm^2). […] The plants were grown for 8-22 days in a greenhouse with an approximate 14 h photoperiod which was maintained at about 29° C. during the day and 26° C. during the night. Nutrients (Peters Excel® 15-5-15 5-Ca 2-Mg and iron chelate) were applied in the irrigation solution as needed and water was added on a regular basis. Supplemental lighting was provided with overhead metal halide 1000-Watt lamps as necessary. The plants were employed for testing when they reached the first through fourth true leaf stage.
(§3) Treatments consisted of the acid or esters of 4-amino-3-chloro-5-fluoro-6-(4-chloro-2-fluoro-3-methoxy-phenyl)pyridine-2-carboxylic acid (Compound A), each formulated as an SC (suspension concentrate), and various herbicidal components alone and in combination. Forms of compound A were applied on an acid equivalent basis.
(§4) For treatments comprised of formulated compounds, measured amounts of compounds were placed individually in 25 mL glass vials and diluted in a volume of 1.25% (v/v) Agri-Dex® crop oil concentrated to obtain 12× stock solutions. […] Application solutions were prepared by adding an appropriate amount of each stock solution (e.g., 1 mL) and diluted to the appropriate final concentrations with the addition of 10 mL of an aqueous mixture of 1.25% (v/v) crop oil concentrate so that the final spray solutions contained 1.25+/−0.05% (v/v) crop oil concentrate.
(§5) All stock solutions and applications solutions were visually inspected for compound compatibility prior to application. Spray solutions were applied to the plant material with an overhead Mandel track sprayer equipped with a 8002E nozzles calibrated to deliver 187 L/ha over an application area of 0.503 m^2 at a spray height of 18 to 20 inches (46 to 50 cm) above average plant canopy height. Control plants were sprayed in the same manner with the solvent blank.
(§6) The treated plants and control plants were placed in a greenhouse as described above and watered by sub-irrigation to prevent wash-off of the test compounds. After approximately 3 weeks, the condition of the test plants as compared with that of the untreated plants was determined visually and scored on a scale of 0 to 100 percent where 0 corresponds to no injury or growth inhibition and 100 corresponds to complete kill.
(§7) Colby's equation was used to determine the herbicidal effects expected from the mixtures (Colby, S. R. 1967. Calculation of the synergistic and antagonistic response of herbicide combinations. Weeds 15:20-22).
(§8) The following equation was used to calculate the expected activity of mixtures containing two active ingredients, A and B: Expected=A+B−(A×B/100)
(§9) A=observed efficacy of active ingredient A at the same concentration as used in the mixture.
(§10) B=observed efficacy of active ingredient B at the same concentration as used in the mixture.

CYPIR = test: Example I: postemergence foliar-applied herbicidal mixtures, direct seeded rice, CYPIR; assay type: in vivo, Cyperus iria (rice flatsedge)
ECHCG [2] = test: Example II: in-water applied herbicidal mixtures, transplanted paddy rice, ECHCG; assay type: in vivo, Echinochloa crus-galli (barnyardgrass); conditions: for Visual Weed Control (%) - 21 DAA ECHCG Obs / Visual Weed Control (%) - 22 DAA ECHCG Obs: in-water application
In short: (§1)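 Greenhouse in-water application: products pipetted one after another into the aqueous layer over mud-grown transplanted rice, with rice seedlings at the 2nd–3rd leaf stage transplanted 4 days earlier. Controls got the solvent blank only; every pot received matching acetone and crop oil concentrate.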

CYPRO = test: Example II: in-water applied herbicidal mixtures, weed control in transplanted paddy rice (greenhouse), CYPRO; assay type: in vivo, Cyperus rotundus (purple nutsedge); conditions: for Visual Weed Control (%) - 21 DAA CYPRO Obs / Visual Weed Control (%) - 22 DAA CYPRO Obs: in-water application; for Visual Weed Control (%) Obs: 20 DAA
In short: as §1

LEFCH [3] = test: Example II: in-water applied herbicidal mixtures, transplanted paddy rice, LEFCH; assay type: in vivo, Leptochloa chinensis (Chinese sprangletop); conditions: for Visual Weed Control (%) - 21 DAA LEFCH Obs / Visual Weed Control (%) - 25 DAA LEFCH Obs: in-water application
In short: as §1

SCPMA = test: Example II: in-water applied herbicidal mixtures, transplanted paddy rice, SCPMA; assay type: in vivo
In short: as §1

DIGSA = test: Example I: postemergence foliar-applied herbicidal mixtures, direct seeded rice, DIGSA
ECHCO = test: Example I: postemergence foliar-applied herbicidal mixtures, direct seeded rice, ECHCO; conditions: for Visual Weed Control (%) - 21 DAA ECHCO Obs: Fluroxypyr MHE 0 gae/ha
Protocol: as §2, §3, §4, §5, §6, §7, §8, §9, §10

LEFCH [4] = test: Example I: postemergence foliar-applied herbicidal mixtures, direct seeded rice, LEFCH; assay type: in vivo, Leptochloa chinensis (Chinese sprangletop)
ECHOR = test: Example II: in-water applied herbicidal mixtures, transplanted paddy rice, ECHOR; assay type: in vivo, Echinochloa oryzoides (early watergrass); conditions: for Visual Weed Control (%) - 20 DAA ECHOR Obs / Visual Weed Control (%) - 22 DAA ECHOR Obs: in-water application
In short: as §1

COc1c(Cl)ccc(-c2nc(C(=O)OCc3ccccc3)c(Cl)c(N)c2F)c1F [Compound A Benzyl Ester, benzyl ester of 4-amino-3-chloro-5-fluoro-6-(4-chloro-2-fluoro-3-methoxy-phenyl)pyridine-2-carboxylic acid]
Visual Weed Control (%) - 21 DAA ECHCG Obs (ECHCG [1]; 4.38 gae/ha): 48%
Visual Weed Control (%) - 23 DAA ECHCG Obs (ECHCG [1]; 4.38 gae/ha): 40%
Visual Weed Control (%) - 21 DAA ECHCG Obs (ECHCG [1]; 8.75 gae/ha): 55%
Visual Weed Control (%) - 23 DAA ECHCG Obs (ECHCG [1]; 8.75 gae/ha): 55%
Visual Weed Control (%) - 21 DAA ECHCG Obs (ECHCG [1]; Compound A Benzyl Ester rate printed '—' (second line), Fluroxypyr MHE 0 gae/ha): 85%
Visual Weed Control (%) - 21 DAA ECHCG Obs (ECHCG [1]; Compound A Benzyl Ester rate printed '—', Fluroxypyr MHE 0 gae/ha): 10%
Weed Control Ob (POLCO; after 20-22 days): 50%
POLCO Ob (observed value) (POLCO; alone, foliar, 20-22 days): 50%
Visual Weed Control (%) Obs (ELEIN; 14 DAA, 3.75 gae/ha): 0%
Visual Weed Control (%) Obs (ELEIN; 17 DAA, 7.5 gae/ha): 20%
Visual Weed Control (%) - 20 DAA IPOHE Obs (IPOHE; 4.38 gae/ha): 0%
Visual Weed Control (%) - 20 DAA IPOHE Obs (IPOHE; 8.75 gae/ha): 10%
Visual Weed Control (%) - 20 DAA IPOHE Obs (IPOHE; 17.5 gae/ha): 25%
Visual Weed Control (%) - 21 DAA CYPIR Obs (CYPIR; 4.38 gae/ha): 75%
Visual Weed Control (%) - 20 DAA CYPIR Obs (CYPIR; 8.75 gae/ha): 35%
Visual Weed Control (%) - 21 DAA CYPIR Obs (CYPIR; 8.75 gae/ha): 85%
Visual Weed Control (%) - 21 DAA ECHCG Obs (ECHCG [2]; 4.38 gae/ha): 0%
Visual Weed Control (%) - 22 DAA ECHCG Obs (ECHCG [2]; 4.38 gae/ha): 30%
Visual Weed Control (%) - 21 DAA ECHCG Obs (ECHCG [2]; 8.75 gae/ha): 0%
Visual Weed Control (%) - 22 DAA ECHCG Obs (ECHCG [2]; 8.75 gae/ha): 45%
Visual Weed Control (%) - 21 DAA ECHCG Obs (ECHCG [2]; 17.5 gae/ha): 25%
Visual Weed Control (%) Obs (ECHCG [2]; 19 DAA, 8 gae/ha): 35%
Visual Weed Control (%) Obs (ECHCG [2]; 19 DAA, 16 gae/ha): 85%
Visual Weed Control (%) Obs (ECHCG [2]; 20 DAA, 4.38 gae/ha): 15%
Visual Weed Control (%) Obs (ECHCG [2]; 20 DAA, 8.75 gae/ha): 20%
Visual Weed Control (%) Obs (ECHCG [2]; 20 DAA, 17.5 gae/ha): 40%
Visual Weed Control (%) Obs (ECHCG [2]; 22 DAA, 4.38 gae/ha): 30%
Visual Weed Control (%) Obs (ECHCG [2]; 22 DAA, 8.75 gae/ha): 45%
Visual Weed Control (%) Obs (ECHCG [2]; 22 DAA, 17.5 gae/ha): 90%
Visual Weed Control (%) - 21 DAA CYPRO Obs (CYPRO; 4.38 gae/ha): 0%
Visual Weed Control (%) - 22 DAA CYPRO Obs (CYPRO; 4.38 gae/ha): 90%
Visual Weed Control (%) - 21 DAA CYPRO Obs (CYPRO; 8.75 gae/ha): 0%
Visual Weed Control (%) - 22 DAA CYPRO Obs (CYPRO; 8.75 gae/ha): 70%
Visual Weed Control (%) Obs (CYPRO; 4.38 gae/ha): 0%
Visual Weed Control (%) Obs (CYPRO; 8.75 gae/ha): 0%
Visual Weed Control (%) - 21 DAA LEFCH Obs (LEFCH [3]; 4.38 gae/ha): 0%
Visual Weed Control (%) - 21 DAA LEFCH Obs (LEFCH [3]; 8.75 gae/ha): 0%
Visual Weed Control (%) - 25 DAA LEFCH Obs (LEFCH [3]; 8.75 gae/ha): 50%
Visual Weed Control (%) - 21 DAA LEFCH Obs (LEFCH [3]; 17.5 gae/ha): 0%
Visual Weed Control (%) - 25 DAA LEFCH Obs (LEFCH [3]; 17.5 gae/ha): 90%
Visual Weed Control (%) Obs (LEFCH [3]; 19 DAA, 35 gae/ha): 80%
Visual Injury (%) Obs (LEFCH [3]; 25 DAA, 8.75 gae/ha): 50%
Visual Weed Control (%) Obs (LEFCH [3]; 25 DAA, 8.75 gae/ha): 50%
Visual Injury (%) Obs (LEFCH [3]; 25 DAA, 17.5 gae/ha): 90%
Visual Weed Control (%) Obs (LEFCH [3]; 25 DAA, 17.5 gae/ha): 90%
Visual Weed Control (%) Obs (SCPMA; 20 DAA, 35 gae/ha): 0%
Visual Weed Control (%) Obs (SCPMA; 20 DAA, 70 gae/ha): 0%
Visual Weed Control (%) Obs (SCPMA; 21 DAA, 4.38 gae/ha): 0%
Visual Weed Control (%) Obs (SCPMA; 21 DAA, 8.75 gae/ha): 0%
Visual Weed Control (%) Obs (SCPMA; 21 DAA, 17.5 gae/ha): 0%
Visual Weed Control (%) Obs (SCPMA; 22 DAA, 4.38 gae/ha): 0%
Visual Weed Control (%) Obs (SCPMA; 22 DAA, 8.75 gae/ha): 0%
Visual Weed Control (%) Obs (SCPMA; 22 DAA, 17.5 gae/ha): 0%
Visual Weed Control (%) - 23 DAA DIGSA Obs (DIGSA; 4.38 gae/ha): 0%
Visual Weed Control (%) - 23 DAA DIGSA Obs (DIGSA; 8.75 gae/ha): 0%
Visual Weed Control (%) - 23 DAA DIGSA Obs (DIGSA; 17.5 gae/ha): 15%
Visual Weed Control (%) - 20 DAA DIGSA Obs (DIGSA; 35 gae/ha): 38%
Visual Weed Control (%) - 20 DAA ECHCO Obs (ECHCO; 4.38 gae/ha): 50%
Visual Weed Control (%) - 23 DAA ECHCO Obs (ECHCO; 4.38 gae/ha): 40%
Visual Weed Control (%) - 20 DAA ECHCO Obs (ECHCO; 8.75 gae/ha): 75%
Visual Weed Control (%) - 23 DAA ECHCO Obs (ECHCO; 8.75 gae/ha): 40%
Visual Weed Control (%) - 23 DAA ECHCO Obs (ECHCO; 17.5 gae/ha): 75%
Visual Weed Control (%) - 21 DAA ECHCO Obs (ECHCO; Compound A Benzyl Ester rate printed '—' (second line)): 75%
Visual Weed Control (%) - 21 DAA ECHCO Obs (ECHCO; Compound A Benzyl Ester rate printed '—'): 70%
Visual Weed Control (%) - 20 DAA LEFCH Obs (LEFCH [4]; 4.38 gae/ha): 0%
Visual Weed Control (%) - 20 DAA LEFCH Obs (LEFCH [4]; 8.75 gae/ha): 20%
Visual Weed Control (%) - 19 DAA LEFCH Obs (LEFCH [4]; 16 gae/ha): 58%
Visual Weed Control (%) - 20 DAA ECHOR Obs (ECHOR; 4.38 gae/ha): 10%
Visual Weed Control (%) - 20 DAA ECHOR Obs (ECHOR; 8.75 gae/ha): 20%
Visual Weed Control (%) - 22 DAA ECHOR Obs (ECHOR; 8.75 gae/ha): 25%
Visual Weed Control (%) - 20 DAA ECHOR Obs (ECHOR; 17.5 gae/ha): 50%
Visual Weed Control (%) - 22 DAA ECHOR Obs (ECHOR; 17.5 gae/ha): 45%
pest or weed control at 8 g/ha (ECHOR; Echinochloa oryzoides, 456 h, read-out: Visual Weed Control (%) Obs, 19 DAA, 8 gae/ha): 10%
pest or weed control at 16 g/ha (ECHOR; Echinochloa oryzoides, 456 h, read-out: Visual Weed Control (%) Obs, 19 DAA, 16 gae/ha): 25%
pest or weed control at 32 g/ha (ECHOR; Echinochloa oryzoides, 456 h, read-out: Visual Weed Control (%) Obs, 19 DAA, 32 gae/ha): 35%
pest or weed control at 4.38 g/ha (ECHOR; Echinochloa oryzoides, 480 h, read-out: Visual Weed Control (%) Obs, 20 DAA, 4.38 gae/ha): 25%
pest or weed control at 8.75 g/ha (ECHOR; Echinochloa oryzoides, 480 h, read-out: Visual Weed Control (%) Obs, 20 DAA, 8.75 gae/ha): 20%
pest or weed control at 17.5 g/ha (ECHOR; Echinochloa oryzoides, 480 h, read-out: Visual Weed Control (%) Obs, 20 DAA, 17.5 gae/ha): 30%
pest or weed control at 35 g/ha (ECHOR; Echinochloa oryzoides, 480 h, read-out: Visual Weed Control (%) Obs, 20 DAA, 35 gae/ha): 73%
pest or weed control at 4.38 g/ha (ECHOR; Echinochloa oryzoides, 504 h, read-out: Visual Weed Control (%) Obs, 21 DAA, 4.38 gae/ha): 15%
pest or weed control at 8.75 g/ha (ECHOR; Echinochloa oryzoides, 504 h, read-out: Visual Weed Control (%) Obs, 21 DAA, 8.75 gae/ha): 15%
pest or weed control at 17.5 g/ha (ECHOR; Echinochloa oryzoides, 504 h, read-out: Visual Weed Control (%) Obs, 21 DAA, 17.5 gae/ha): 20%
pest or weed control at 8.75 g/ha (ECHOR; Echinochloa oryzoides, 528 h, read-out: Visual Weed Control (%) Obs, 22 DAA, 8.75 gae/ha): 35%
pest or weed control at 17.5 g/ha (ECHOR; Echinochloa oryzoides, 528 h, read-out: Visual Weed Control (%) Obs, 22 DAA, 17.5 gae/ha): 30%
pest or weed control at 8.75 g/ha (ECHOR; Echinochloa oryzoides, 600 h, read-out: Visual Weed Control (%) Obs, 25 DAA, 8.75 gae/ha): 85%
pest or weed control at 17.5 g/ha (ECHOR; Echinochloa oryzoides, 600 h, read-out: Visual Weed Control (%) Obs, 25 DAA, 17.5 gae/ha): 90%
